According to patent publication US20200237863A1, “Combination Therapy of Fractionated Radiation and SAPC-DOPS for the Treatment of Tumors” (University of Cincinnati, priority 2017, published 2020):
Residues, ends and D or L forms follow the SMILES beside them. *: point of attachment. Cbz = O=C(OCc1ccccc1)*; CH2F = FC*

Key:
cfPac-1 cells = assay: Flow cytometric analysis of Annexin V-FITC binding (surface PS) after irradiation; assay type: cell-based, human; conditions: cfPac-1 cells irradiated at 10 Gy, 10 μM Z-VAD-fmk, assessed 24 hr later
Procedure: Unless otherwise stated, cells at 60-80% confluency were irradiated and then, after the appropriate time, were trypsinized, resuspended in complete medium, spun down, and washed once with PBS then resuspended in annexin V staining buffer. Cells (1×10^5) were incubated at room temperature in the dark for 15 minutes in a final volume of 100 μl containing 10 μl Annexin V-FITC (Invitrogen, Carlsbad, Calif.) and 2 μg/ml propidium iodide (PI, BD-Pharmingen, Eugene, Oreg.). Annexin V-FITC binding was measured by flow cytometry after adding 400 μl of annexin V binding buffer, using a BD Fortessa. Data was analyzed with BD FACS Diva. For quantifying the annexin V-FITC signal from living cells, PI positive dead cells were gated out and the annexin V-FITC signal was obtained from PI negative forward scattered, cells.
Cells were grown to 60-80% confluence in 60 mm dishes then exposed to (^137Cs) irradiation with a GammaCell 40 Exactor (Nordion international) at doses of 0, 2, 6, 10 or 16 Gy. The media was changed and the cells were processed for surface PS determination at the indicated times. Mice were irradiated at 10 Gy with an Xstrahl D3100 superficial systems (at 100 kV) with 2 cm cone and projected 1 cm deep.

[1] = tested on: A2058, cfPac-1 and U87MG cell lines; assay: Cell viability (MTT) assay of serially irradiated cells treated with chemotherapeutic drugs; assay type: cell-based, human; conditions: 5 Gy weekly for multiple weeks, drug 7 days after last irradiation, MTT 72 hr later
Procedure: Non serially-irradiated cells are designated R0. Media was changed immediately after the irradiation and the cells were split every 3-4 days. Treatments were given 4-7 days following the last 5 Gy irradiation, when the surface PS is still elevated. A) Timeline of the treatment regime. B) Surface PS was determined by Annexin V-FITC staining on Day 4 following the last 5 Gy irradiation. Rx; x=15 for A2058 and 10 for cfPac-1 and U87MG. * p<0.05, ** p<0.01 compared to R0. Shown are the mean and S.D. C-E) Cells were serially irradiated with 5 Gy. (top panel, A2058 cells; middle panel, cfPac-1 cells; bottom panel, U87MG cells) C) 7 days later they were exposed to the indicated doses of radiation and cell viability was determined by MTT assay was performed 72 hr. later. Shown is the % of live cells with 100% as the normalized control for each cell line, * p<0.05. ** p<0.01, compared to R0. D) 7 days after the last 5 Gy irradiation, cells were treated with different doses of gemcitabine (GEM) temozolomide (TMZ) or cisplatin and cell viability was determined by MTT assay was performed 72 hr. later. * p<0.05, ** p<0.01, compared to R0 at the same dose of drug. E.) 7 days following the last 5 Gy irradiation, cells were treated with the indicated doses of SapC-DOPS (1 SapC:7 DOPS, Mol:Mol) and cell viability was determined by MTT assay was performed 72 hr. later. […]

Structure (SMILES)	radiation-induced surface PS elevation (Annexin V binding) (cfPac-1 cells)	sensitivity of serially irradiated cells to chemotherapeutic drugs (MTT cell viability) compared to R0 [1]
COC(=O)C[C@H](NC(=O)[C@H](C)NC(=O)[C@@H](NC(=O)OCc1ccccc1)C(C)C)C(=O)CF [Z-VAD fmk] (Cbz-Val-Ala-Asp(OMe)-CH2F)	completely eliminated the radiation-induced surface PS elevation	–
N.N.[Cl][Pt][Cl] [cisplatin]	–	more resistant
Nc1ccn([C@@H]2O[C@H](CO)[C@@H](O)C2(F)F)c(=O)n1 [gemcitabine]	–	more resistant
